Assays:
[1] = test system: S-180 sarcoma; test: Animal Test A: SDT with dihydroporphin e4 in KM mouse S-180 sarcoma model; assay type: in vivo; details: for Average Tumor Weights: 12 days after treatment
Method: The sound-sensitive agent, dihydroporphin e4, is prepared according to Chinese Patent No. 99119878.6. The agent is dissolved in water for injection in darkness to give a final concentration of 4 mg/mL. The resultant solution is stored at 4° C. in darkness.
The animal tumor model used in this study was the KM mouse S-180 sarcoma, which is one of the tumor models appointed by the China Food and Drug Administration (CFDA) for new anticancer drug testing. Mouse S-180 sarcoma cell line was commercially available from the Cancer Hospital affiliated to Sun Yat-sen University. The inbred strain of KM mice (female, about 18-20 g body weight) was bred and tested in a laboratory consistent with national standards for new drug tests (the Animal Experimental Centre of Guangzhou Chinese Traditional Medical University). The mouse S-180 sarcoma cell line was injected into and raised in the abdominal cavity of the KM mouse and regenerated 3 times by passing malignant ascites from one mouse to another to confirm their growth is stable.
The ultrasound having a frequency of 1.0 MHz and an adjustable power density in the range of 0.1-2.2 W/cm^2 is applied. The apparatus can emit parallel wave, continuous wave or discontinuous wave.
The ascites with S-180 cell suspension was drawn out from the abdomen of the third passage mouse, and germ-free physiological saline solution was added. The final concentration of the cell suspension was 1×10^7 cells/mL. 0.1 mL of the cell suspension was injected subcutaneously in the right axilla of the mouse to grow a solid tumor.
Three days later, a small mass with the average diameter of about 0.4 cm was seen and palpated on every implanted mouse axilla. These tumor-bearing mice are divided randomly into the following groups with 5 mice in each group: • 1) a blank control group (C); • 2) a ultrasound group (U), which are simply treated with ultrasound (having a frequency of 1.0 MHz and a power density of 1.6 W/cm^2) without injection of the sound-sensitive agent; • 3) a sound-sensitive agent group (E), which are simply injected with the sound-sensitive agent without treatment of ultrasound; • 4) a 0.4 group (EU1), which are injected with the sound-sensitive agent and subsequently treated with ultrasound having a frequency of 1.0 MHz and a power density of 0.4 W/cm^2; • 5) a 0.8 group (EU2), which are treated according to EU1 except using ultrasound having a power density of 0.8 W/cm^2; and • 6) a 1.6 group (EU3), which are treated according to EU1 except using ultrasound having a power density of 1.6 W/cm^2.
To prepare the mice for the experiment, the fur on the tumor-bearing area of the mice was removed with depilatory cream. For the E, EU1, EU2 and EU3 groups, the sound-sensitive agent was injected into each mouse abdominal cavity in a dose of 40 mg/kg in a dark room. The mice are kept in darkness.
(§1) Six hours after the injection, each mouse of the EU1, EU2 and EU3 groups and the U group is partially immerged in water with only their head remaining above the water surface. An ultrasound probe was then placed into the water to irradiate the tumor area at the above parameters for 3 minutes. The mice of each group are fed in a conventional way.
After treatment with SDT, primary tumor size were estimated by measuring perpendicular minor dimension (W) and major dimension (L) using sliding calipers every one or two days. Approximate tumor volume was calculated by the formula: W^2L×½.
12 days later, the mice are sacrificed by breaking the cervical vertebrae. The tumor tissues are separated and weighed on an electronic balance to calculate an average weight. Various groups are compared in terms of their respective average tumor weight at the 12th day.
In comparing the tumor weights of various groups, statistic analysis is performed using the Student's t test.

[2] = test system: right breast carcinoma, tumor metastasis in liver; test: Clinical case: SDT with lysine form of tin chlorophyllin; assay type: in vivo, human; details: patient
Method: A patient with right breast carcinoma. […] 9, 2007 (see FIG. 5). The lysine form of tin chlorophyllin as indicated in the above animal test B was dissolved in 0.1 mol/L phosphate buffer (pH 7.4) and given to the patient through lingual absorption every day for 2 days. Total dose of the lysine form of tin chlorophyllin was 60 mg. After 24 h, the red light light-emitting diode (LED) was irradiated to the body surface followed by local ultrasound irradiating of the tumour area at the intensities of 2.0 W/cm^2 for 20 minutes in a water bathtub every day for 3 days. One week later, the treatment was repeated. After 3 cycles of SDT treatment with the lysine form of tin chlorophyllin, CT-PET scan on Jan.

[3] = test system: S-180 sarcoma; test: Animal Test B: SDT with lysine form of tin chlorophyllin in KM mouse S-180 sarcoma model; assay type: in vivo
Method: The sound-sensitive agent was the amino acid form of tin chlorophyllin, wherein M is Sn^4+, R1 is a residue of lysine, and R2 is a residue of lysine; the agent was obtained according to the previous process. The agent was dissolved in 0.1 mol/L phosphate buffer (pH 7.2-7.4) in darkness to give a final concentration of 2 mg/mL. The resultant solution was stored at 4° C. in a dark and quiet place.
The same as used in the above Animal Test A.
The same as established in the above Animal Test A.
After four days, touchable tumors with the average diameter of about 0.6 cm are developed subcutaneously at the right axillae of the mice. These tumor-bearing mice are divided randomly into the following groups: • 1) a blank control group (C); • 2) a ultrasound group (U), which are simply treated with ultrasound (having a frequency of 1.0 MHz and a power density of 1.2 W/cm^2) without injection of the sound-sensitive agent; • 3) a sound-sensitive agent group (S), which are simply injected with the sound-sensitive agent without treatment of ultrasound; • 4) a 0.3 group (SU1), which are injected with the sound-sensitive agent and subsequently treated with ultrasound having a frequency of 1.0 MHz and a power density of 0.3 W/cm^2; • 5) a 0.6 group (SU2), which are treated according to SU1 except using ultrasound having a power density of 0.6 W/cm^2; and • 6) a 1.2 group (SU3), which are treated according to SU1 except using ultrasound having a power density of 1.2 W/cm^2.
A depilatory cream is applied to remove fur on the areas to be irradiated. For the S, SU1, SU2 and SU3 groups, the sound-sensitive agent is injected intraperitoneally to each mouse at a dose of 20 mg/kg in a dark room. The mice are then fed in darkness.
as §1, with “6 h” for “Six hours”, “after” for “after the”, “SU1, SU2” for “EU1, EU2”, “SU3” for “EU3”, “ultrasond” for “ultrasound”, “180 seconds.” for “3 minutes.”
The same as in the above Animal Test A.
15 days later, the mice are sacrificed by breaking the cervical vertebrae. The tumor tissues are separated and weighed on an electronic balance to calculate an average weight. Various groups are compared in terms of their respective average tumor weights at the 15th day.

Row | Substance | tumor growth (FIG. 2) ([1]; SDT, ultrasound power density 0.4 W/cm^2-1.6 W/cm^2) | Average Tumor Weights ([1]; group E: 40 mg/kg into abdominal cavity, no ultrasound) | average tumor volume profile (FIG. 1) ([1]; group E: 40 mg/kg, no ultrasound) | Average Tumor Weights ([1]; group EU1: 40 mg/kg into abdominal cavity + ultrasound 1.0 MHz, 0.4 W/cm^2, 3 min, 6 h after injection) | Average Tumor Weights ([1]; group EU2: 40 mg/kg into abdominal cavity + ultrasound 1.0 MHz, 0.8 W/cm^2, 3 min, 6 h after injection) | average tumor volume profile (FIG. 1) ([1]; group EU3: 40 mg/kg + ultrasound 1.6 W/cm^2) | Average Tumor Weights ([1]; group EU3: 40 mg/kg into abdominal cavity + ultrasound 1.0 MHz, 1.6 W/cm^2, 3 min, 6 h after injection) | Blood Routine and chemistry tests ([2]; after 3 cycles of SDT) | symptom ([2]; after 3 cycles of SDT) | CT-PET scan of liver metastasis after 3 cycles of SDT ([2]; total dose 60 mg by lingual absorption, red LED light + ultrasound 2.0 W/cm^2, 20 min, daily for 3 days per cycle) | effect on the tumor (FIG. 4) ([3]; SDT, ultrasound power density 0.3 W/cm^2-1.2 W/cm^2) | Average Tumor Weight ([3]; group S: 20 mg/kg intraperitoneally, no ultrasound, 15 days after treatment) | average tumor volume profile (FIG. 3) ([3]; group S: 20 mg/kg, no ultrasound) | Average Tumor Weight ([3]; group SU1: 20 mg/kg intraperitoneally + ultrasound 1.0 MHz, 0.3 W/cm^2, 180 s, 6 h after injection, 15 days) | Average Tumor Weight ([3]; group SU2: 20 mg/kg intraperitoneally + ultrasound 1.0 MHz, 0.6 W/cm^2, 180 s, 6 h after injection, 15 days) | average tumor volume profile (FIG. 3) ([3]; group SU3: 20 mg/kg + ultrasound 1.2 W/cm^2) | Average Tumor Weight ([3]; group SU3: 20 mg/kg intraperitoneally + ultrasound 1.0 MHz, 1.2 W/cm^2, 180 s, 6 h after injection, 15 days)
1 | dihydroporphin e4 | tumor growth is significantly inhibited | 1.8800 ± 0.3114 g | slower increase compared with the blank control group | 0.7600 ± 0.0894 g | 0.5800 ± 0.0837 g | even slower tumor development | 0.5200 ± 0.0837 g | – | – | – | – | – | – | – | – | – | –
2 | lysine form of tin chlorophyllin | – | – | – | – | – | – | – | normal result | much improved | the tumor shrank and the tumor metabolic activity was inhibited | killing effect on the tumor | 0.269 ± 0.331 g | slower increase compared to the blank control group | 0.0435 ± 0.031 g | 0.022 ± 0.008 g | hardly increased during the first six days after the SDT treatment, and began to decrease from the 7th day, and noticeably lower at the 15th day than before the test | 0.011 ± 0.004 g
